Assay results as given in US10278942B2 (PELOTON THERAPEUTICS, INC., priority 2015, dated 2019).
Like-named read-outs stand apart in the source and are kept apart here.

Legend:
[1] = target: T1, HIF-2α HIS TAG-PASB Domain (Homo sapiens, UniProt Q99814); assay: HIF-2α Scintillation Proximity Assay (SPA); type: binding
T1 construct: 100 nM HIF-2α HIS TAG-PASB Domain
Method in brief: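 IC50 values rest on percent inhibition, where the sample signal is scaled between high and low controls. Wells contain about 100 μL: compound dispensed as 2 μL of DMSO solution, 88 μL protein-probe mix and 10 μL of beads.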

786-O cells = assay: VEGF ELISA Assay; type: cell-based; conditions: Homo sapiens, 786-0
Procedure: Each concentration was plated in duplicate. About 20 hours later, medium was removed by suction and each well was supplied with 180 μL of growth medium. About 20 μl freshly-made 10× compound stocks were added to each well. […] The EC50 was calculated by GraphPad Prism using the dose-response-inhibition (four parameter) equation. The cell-seeded plate was then subjected to CellTiter-Glo luminescence cell viability assay (Promega) by adding 50 μL of Celltiter Glo reagent into each well and shaking the plate for 8 minutes at 550 rpm (Thermomixer R, Eppendorf) then the luminescence signal immediately read in a plate reader (3 second delay, 0.5 second/well integration time, Synergy 2 multi Detection Microplate reader).

786-O-Hif-Luc cells = assay: Luciferase Assay (HIF responsive elements reporter)
Procedure: A pool of infected cells were then selected against 2 μg/mL of puromycin (P8833, Sigma) for 10 days followed by limited dilution to select single clones. […] Each concentration was tested in triplicate. After about 24 hours, luciferase activity was determined using ONE-Glo Luciferase Assay Reagent (E6110, Promega) following the manufacturer's recommended procedure. EC50 were calculated using Dotmatics software.

[2] = read-out: Scintillation Proximity Assay IC50
[3] = read-out: Mean Luciferase EC50 (nM), 786-O-Hif-Luc cells
[4] = Scintillation Proximity Assay IC50 (nM)
[5] = read-out: Mean Luciferase EC50 (nM)

T1 sequence (Q99814 240-350 limits assumed): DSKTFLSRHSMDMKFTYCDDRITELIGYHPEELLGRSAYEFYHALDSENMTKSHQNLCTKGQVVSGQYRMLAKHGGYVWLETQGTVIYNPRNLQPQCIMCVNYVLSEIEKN

| Structure (SMILES) | IC50 [1, 2] [nM] | EC50 (786-O cells) [nM] | EC50 (786-O-Hif-Luc cells; [3]) [nM] | IC50 [1, 4] [nM] | EC50 (786-O-Hif-Luc cells; [5]) [nM] |
| --- | --- | --- | --- | --- | --- |
| CS(=O)(=O)c1ccc(OC2CC(F)(F)C2)c2c1[C@H](O)[C@H](F)[C@@H]2F [Compound 577] | < 50 | 250 to 1000 | 250 to 1000 |  |  |
| N#Cc1cncc(Oc2ccc(S(=O)(=O)C(F)(F)F)c3c2C[C@@H](F)[C@H]3O)c1 [Compound 225] | < 50 | 50 to 249 | < 50 |  |  |
| Cc1c(S(=O)(=O)C(F)F)ccc(Oc2cc(F)cc(F)c2)c1C#N [Compound 34] | < 50 | 250 to 1000 | 250 to 1000 |  |  |
| N#Cc1cc(F)cc(Oc2ccc(S(=O)(=O)CF)c3c2CC(F)(F)[C@H]3O)c1 [Compound 63] |  | < 50 | < 50 | < 50 |  |
| O=S1(=O)c2ccc(Oc3cc(F)cc(Cl)c3)c(C(F)(F)F)c2C(O)C1(F)F (centres unmarked) [Compound 360] |  | 50 to 249 |  | < 50 | 50 to 249 |
| N#Cc1cncc(Oc2ccc3c(c2Br)[C@@H](O)C(F)(F)S3(=O)=O)c1 [Compound 424] | 50 to 249 | 250 to 1000 | 50 to 249 |  |  |
| N#Cc1cccc(Oc2ccc(S(=O)(=O)C(F)F)c3c2CC(F)(F)[C@H]3O)c1 [Compound 236] | < 50 | < 50 | < 50 |  |  |
| O=S(=O)(CF)c1ccc(Oc2cc(F)c(F)c(F)c2)c2c1[C@H](O)C(F)(F)C2 [Compound 188] | < 50 | 50 to 249 | 50 to 249 |  |  |
| CS(=O)(=O)c1ccc(Oc2cncc(C#N)c2)c2c1[C@H](O)C(F)(F)[C@@H]2F [Compound 342] | < 50 | 50 to 249 | 50 to 249 |  |  |
| Cc1cc(C#N)cc(Oc2ccc(S(=O)(=O)CF)c3c2CC(F)(F)[C@H]3O)c1 [Compound 166] | < 50 | 50 to 249 | < 50 |  |  |
| N#Cc1cc(F)cc(Nc2ccc(S(=O)(=O)C(F)(F)F)c3c2CC(F)(F)[C@H]3O)c1 [Compound 489, (S)-3-((2,2-difluoro-1-hydroxy-7-((trifluoromethyl)sulfonyl)-2,3-dihydro-1H-inden-4-yl)amino)-5-fluorobenzonitrile] | < 50 | < 50 | < 50 |  |  |
| O=S(=O)(c1ccc(Oc2cc(F)cc(F)c2)c2c1C(O)C(F)(F)C2)C(F)F (centres unmarked) [Compound 9] | < 50 | < 50 | < 50 |  |  |
| CS(=O)(=O)c1ccc(Oc2cncc(C#N)c2)c2c1[C@H](O)C(F)(F)C2 [Compound 325] | 50 to 249 | 50 to 249 | 250 to 1000 |  |  |
| CS(=O)(=O)c1ccc(O[C@H]2C[C@@H](F)C2)c2c1[C@H](O)C(F)(F)[C@@H]2F [Compound 740] | < 50 | 50 to 249 | 50 to 249 |  |  |
| CS(=O)(=O)c1ccc(Oc2cc(F)cc(F)c2)c2c1[C@H](O)C(F)(F)C2 [Compound 159] | < 50 | < 50 | < 50 |  |  |
| O=S(=O)(c1ccc(Oc2cncc(Cl)c2)c2c1[C@H](O)C(F)(F)C2)C(F)(F)F [Compound 186] | < 50 | < 50 | < 50 |  |  |
| N#Cc1cncc(Oc2ccc(C(F)(F)F)c3c2CC(F)(F)[C@H]3O)c1 [Compound 303] | < 50 | 50 to 249 | < 50 |  |  |
| N#Cc1cc(Oc2ccc(S(=O)(=O)C(F)(F)F)c3c2CC(F)(F)[C@H]3O)c[n+]([O-])c1 [Compound 267] | 50 to 249 | 250 to 1000 | 50 to 249 |  |  |
| NC1c2c(ccc(Oc3cc(F)cc(F)c3)c2C(F)F)S(=O)(=O)C1(F)F (centres unmarked) [Compound 365] | < 50 | 50 to 249 | 50 to 249 |  |  |
| O=S(=O)(c1ccc(Oc2cc(F)cc(Cl)c2)c2c1C(O)C(F)(F)C2)C(F)F (centres unmarked) [Compound 8] |  | < 50 | < 50 | < 50 |  |
| N#Cc1cc(F)cc(Oc2ccc(S(=N)(=O)C(F)(F)F)c3c2CC(F)(F)[C@H]3O)c1 (some centres unmarked) [Compound 305] | < 50 | < 50 | < 50 |  |  |
| O=S(=O)(c1ccc(Oc2cc(F)cc(Cl)c2)c2c1[C@H](O)C(F)(F)C2)C(F)F [Compound 158] |  | < 50 | < 50 | < 50 |  |
| CS(=O)(=NC#N)c1ccc(Oc2cc(F)cc(C#N)c2)c2c1[C@H](O)C(F)(F)C2 (single isomer, unassigned) [Compound 240] | < 50 | 50 to 249 | < 50 |  |  |
| CS(=O)(=NC#N)c1ccc(Oc2cc(F)cc(C#N)c2)c2c1[C@H](O)C(F)(F)C2 (some centres unmarked) [Compound 245] | < 50 | 50 to 249 | 50 to 249 |  |  |
| O=S(=O)(CF)c1ccc(O[C@H]2C[C@H](F)C2)c2c1[C@H](O)[C@H](F)[C@@H]2F [Compound 743] | < 50 | 50 to 249 | < 50 |  |  |
| CS(=O)(=O)c1ccc(O[C@H]2C[C@@H](C#N)C2)c2c1[C@H](O)C(F)(F)[C@@H]2F [Compound 761] | < 50 | 50 to 249 | 50 to 249 |  |  |

| Structure (SMILES) | IC50 [1, 2] [nM] | EC50 (786-O cells) [nM] | EC50 (786-O-Hif-Luc cells; [3]) [nM] | IC50 [1, 4] [nM] | EC50 (786-O-Hif-Luc cells; [5]) [nM] |
| --- | --- | --- | --- | --- | --- |
| CC(C)(C#N)COc1ccc(S(=O)(=O)C(F)(F)F)c2c1CC(F)(F)C2O (centres unmarked) [Compound 610] | < 50 | 50 to 249 | 50 to 249 |  |  |
| N#Cc1cc(F)cc(Oc2ccc(S(=O)(=O)C(F)F)c3c2CC[C@H]3O)c1 [Compound 155] |  | 50 to 249 |  |  | 50 to 249 |
| O=S(=O)(CF)c1ccc(OC2CC(F)(F)C2)c2c1[C@H](O)[C@H](F)[C@@H]2F [Compound 578] | < 50 | 50 to 249 | 50 to 249 |  |  |
| N#Cc1cc(F)cc(Oc2ccc(C(F)(F)F)c3c2CC(F)(F)[C@H]3O)c1 [Compound 273] | < 50 | < 50 | < 50 |  |  |
| N#Cc1cc(F)cc(Oc2ccc(S(=O)(=O)C(F)F)c(CO)c2Br)c1 [Compound 80] | < 50 | 250 to 1000 | 250 to 1000 |  |  |
| O=S(=O)(CF)c1ccc(O[C@H]2C[C@H](F)C2)c2c1[C@H](O)C(F)(F)[C@@H]2F [Compound 742] | < 50 | < 50 | < 50 |  |  |
| CS(=O)(=O)c1ccc(OC2CC(F)(F)C2)c2c1[C@H](O)C(F)(F)[C@@H]2F [Compound 574, (1S,3R)-4-(3,3-difluorocyclobutoxy)-2,2,3-trifluoro-7-(methylsulfonyl)-2,3-dihydro-1H-inden-1-ol] | < 50 | 50 to 249 | 50 to 249 |  |  |
| CS(=O)(=O)c1ccc(Oc2cc(Cl)cc(C#N)c2)c2c1[C@H](O)C(F)(F)C2 [Compound 234] |  | 50 to 249 |  |  | < 50 |
| O=S(=O)(c1ccc(Oc2cc(F)c[n+]([O-])c2)c2c1[C@H](O)C(F)(F)C2)C(F)(F)F [Compound 310] | < 50 | 50 to 249 | 50 to 249 |  |  |
| O=S(=O)(c1ccc(OC2CC(F)(F)C2)c2c1[C@H](O)C(F)(F)C2)C(F)(F)F [Compound 572] | < 50 | < 50 | < 50 |  |  |
| CS(=O)(=NC#N)c1ccc(Oc2cc(F)cc(C#N)c2)c2c1[C@H](O)C(F)(F)[C@@H]2F (some centres unmarked) [Compound 316] | < 50 | < 50 | < 50 |  |  |
| CCCOc1ccc(S(=O)(=O)C(F)(F)F)c2c1CC(F)(F)[C@H]2O [Compound 655] | < 50 | < 50 | < 50 |  |  |
| O=S(=O)(c1ccc(OCCCF)c2c1[C@H](O)C(F)(F)C2)C(F)(F)F [Compound 712] | < 50 | < 50 | < 50 |  |  |
| CCCCOc1ccc(S(=O)(=O)C(F)(F)F)c2c1CC(F)(F)[C@H]2O [Compound 710] | < 50 | 50 to 249 | < 50 |  |  |
| O=S(=O)(c1ccc(Oc2ccc(F)cc2)c2c1[C@H](O)C(F)(F)C2)C(F)(F)F [Compound 230] | < 50 | < 50 | < 50 |  |  |
| CS(=O)(=O)c1ccc(O[C@H]2C[C@H](C#N)C2)c2c1[C@H](O)C(F)(F)[C@@H]2F [Compound 760] | < 50 | 50 to 249 | 50 to 249 |  |  |
| CC(C)COc1ccc(S(=O)(=O)C(F)(F)F)c2c1CC(F)(F)[C@H]2O [Compound 709] | < 50 | < 50 | < 50 |  |  |
| N=S1(=O)c2ccc(Oc3cc(F)cc(F)c3)c(C(F)F)c2C(O)C1(F)F (centres unmarked) [Compound 398] | < 50 | 50 to 249 | 50 to 249 |  |  |
| O=S(=O)(c1ccc(Nc2cc(F)cc(F)c2)c2c1C(O)C(F)(F)C2)C(F)(F)F (centres unmarked) [Compound 507] | < 50 | 50 to 249 | 50 to 249 |  |  |
| O=S(=O)(c1ccc(OC2COC2)c2c1[C@H](O)C(F)(F)C2)C(F)(F)F [Compound 784] | 50 to 249 | 50 to 249 | 50 to 249 |  |  |
| O=S(=O)(c1ccc(Oc2cc(F)cc(Cl)c2)c(Cl)c1CO)C(F)F [Compound 41] |  | 250 to 1000 |  |  | 250 to 1000 |
| CC1(O)c2c(ccc(Oc3cc(F)cc(C#N)c3)c2C#N)S(=O)(=O)C1(F)F (centres unmarked) [Compound 451] |  | < 50 | < 50 |  |  |
| N#Cc1cccc(Oc2ccc(S(=O)(=O)C(F)(F)F)c(C#N)c2Br)c1 [Compound 99] |  | 250 to 1000 | 250 to 1000 |  |  |
| C[C@@]1(O)c2c(ccc(Oc3cc(F)cc(C#N)c3)c2C#N)S(=O)(=O)C1(F)F [Compound 458] |  | < 50 | < 50 |  |  |
| O[C@H]1c2c(C(F)(F)F)ncc(OC3CC(F)C3)c2C[C@H]1F (some centres unmarked) [Compound 478] |  | < 50 | < 50 |  |  |
